US7230033B2, “Pest control compositions and methods for their use” (United States of America as represented by the Secretary of …, priority 2000, dated 2007)

Key:
[1] = tested on: adult I. scapularis ticks; test: Treated-vial biocidal screening with 2% acetone solutions (Example 2), adult ticks, residual; assay type: in vivo, Ixodes scapularis; details: treated vials sat 4 wk; arthropods added for the final 24 h
Description: (§1) Samples of the compounds listed below were obtained as described in Example 1, and screened for biocidal activities against nymphal Ixodes scapularis. In this example, 2% acetone solutions (wt/vol) of the compounds were applied to inner surfaces of 2-dram friction cap vials. Vials and caps were treated then allowed to dry for a minimum of 4 hours before placing 10 nymphs in each container. These same vials were used to challenge additional nymphs and adult I. scapularis ticks and adult Xenopsylla cheopis fleas through five weeks to observe any possible residual activity.
(§2) Numbers in parentheses refer to length of treatment in terms of hours (h) or weeks (wk). Data is presented in terms of number killed/number tested. For test periods longer than 24 hours, the treated vials were allowed to sit for the stated period after drying (72 h, 4 wk, or 5 wk) and each group of arthropods was added to the vials for the final 24 h of the test period.

[2] = tested on: Xenopsylla cheopis adults; test: Residual activity, aged treated vials, fleas; assay type: in vivo
Description: (§3) Briefly, groups of 10 nymphal I. scapularis and X. cheopis fleas were used in all tests (more than a total of 5,240 nymphs and 4,860 fleas were exposed to the compounds). The inner surface of 2-dram friction cap vials were treated with the compound/acetone solution, or acetone only as a control, and left to air-dry overnight (see also, Panella et al., J. Med. Entomol., 42(3):352-358, 2005. Three to 4 holes were made in the plastic cap to allow for air exchange. Nymphal ticks and adult fleas were then placed directly into the vials using forceps. Vials containing ticks or fleas were placed in desiccators for 24 h at 21° C. and 90% RH. Morbidity and mortality was recorded at 1, 2, 4, 8, and 24 h after initial exposure.

I. scapularis nymphs = test: Tick bioassay, treated 2-dram vials, probit analysis; assay type: in vivo, Ixodes scapularis
Excerpt: A control treated with acetone only was run with each series.
For each time point, if ticks and fleas were incapable of movement, maintaining normal posture, leg coordination, ability to right themselves, or any signs of life, they were considered moribund or dead.

[3] = tested on: adult Xenopsylla cheopis fleas; test: Treated-vial biocidal screening with 2% acetone solutions (Example 2), adult fleas, residual; assay type: in vivo; details: treated vials sat 5 wk; arthropods added for the final 24 h
Description: as §1, §2

Aedes aegypti = test: Mosquito susceptibility, serial dilutions (Example 8); details: in vivo
Ixodes scapularis nymphs = test: Residual activity, aged treated vials, ticks; assay type: in vivo
Description: as §3

[4] = tested on: fourth-instar Aedes aegypti larvae; test: Larval mosquito bioassay; assay type: in vivo; details: Aedes aegypti larval mosquitoes; concentration of the 1 ml added to 150 ml water
Description: Individual groups of 10 fourth-instar Aedes aegypti larvae were contained in 150 ml of water and exposed to […] of essential oils prepared by 2-fold serial dilutions ranging from 0.06%–5.0% in 1 ml of acetone. A control group of larvae were exposed to 1 ml of acetone only.
It is important to note that larval mosquitoes are tested in their natural environment, i.e., in water. The particular assays used herein involved groups of 10 larval mosquitoes in 150 ml of water. The weight percentages reported for lethal concentration for larval mosquitoes are the weight percentages added to the 150 ml water (as opposed to the final percentage of the tested compound(s) in the 150 ml water). As one of skill in the art will appreciate, test compound(s) added to a volume of water (such as, 150 ml) can be dramatically diluted depending upon the water solubility of the tested compound. […] If the tested compound is an oil (such as, carvacrol, nootkatone, or 13-hydroxy-valencene), it most likely floats on the surface of the water.

Aedes aegypti adults = test: Residual activity, aged treated bottles, mosquitoes; assay type: in vivo
Description: Adult mosquitoes were tested using the bottle bioassay method of Brogden and McAllister (J. Am. Mosq. Control Assoc., 14:159–64, 1998) with minor modifications. Natural product extracts were two-fold serially diluted for a total of 8 concentrations ranging from 0.002% to 0.25% in 1.5 ml of acetone. Individual dilutions were added to 250 ml Wheaton glass bottles and capped. Bottles were manipulated to evenly coat all inner surfaces. The caps were removed and bottles were allowed to air-dry overnight. Once bottles were completely dry, 10–50 (in some tests 25–50) adult mosquitoes were aspirated into the bottles. Mosquitoes were held in the bottles for 24 h at 23° C. and 85% RH. Morbidity and mortality were recorded at 15, 30, 45, and 60 min and 24 hour intervals. One bottle for each replicate was treated with acetone only and served as a control. The dose-mortality data was evaluated with probit analysis, using the LdP Line software, to determine LC50 and LC90 values.

[5] = tested on: ticks, fleas, formicids and termites; test: Persistence of biocidal activity in vials treated with 2% solutions (Example 5); assay type: in vivo; details: at 11 weeks
Description: as §1
Persistence of biocidal activity was determined for nootkatone and valencene-11,12-epoxide by using the vials as treated with the 2% solutions of Example 2. This bioassay employed groups of ticks, fleas, formicids and termites using a method similar to that described in Example 2. […] At 11 weeks, the biocidal activity began to dissipate below the 100% mortality level.

X. cheopis adults = test: Flea bioassay, treated 2-dram vials, probit analysis; assay type: in vivo, Xenopsylla cheopis; details: 24 h exposure
[6] = tested on: nymphal Ixodes scapularis; test: Treated-vial biocidal screening with 2% acetone solutions (Example 2), tick nymphs; assay type: in vivo; details: treated vials sat 72 h; arthropods added for the final 24 h
Description: as §1, §2

[7] = tested on: ticks, fleas, and mosquitoes; test: Residual activity, general statements (Examples 9, 17); assay type: in vivo; details: ticks
[8] = Ixodes scapularis nymphal ticks, alone, or 1:1 with carvacrol (in parenthesis)
[9] = 4 weeks after treatment, NE = not effective

C=C(C)[C@@H]1CCC2=CC(=O)C[C@@H](C)[C@]2(C)C1 [Compound 7, Nootkatone]
I. scapularis adults (4 wk), number killed/number tested [1]: 5/5
Slope, residual activity ([2]; 1 week after treatment): 2.546
LC90, residual activity ([2]; 1 week after treatment, NE = not effective): 0.05 percent concentration, wt:vol
Slope, residual activity ([2]; 2 weeks after treatment): 2.033
LC50, residual activity ([2]; 4 weeks after treatment): 0.031 percent concentration, wt:vol
LC90 (I. scapularis nymphs; 24 h exposure, NE = not effective at concentrations tested): 0.0055 percent concentration, wt:vol
Slope (I. scapularis nymphs; 24 h exposure, probit): 4.708
LC50 (1 h) (I. scapularis nymphs; [8]): 0.126 % (wt:vol)
LC50 (24 h) (I. scapularis nymphs; [8]): 0.0029 % (wt:vol)
LC90 (1 hr) (I. scapularis nymphs; [8]): 0.725 % (wt:vol)
LC90 (24 h) (I. scapularis nymphs; [8]): 0.0055 % (wt:vol)
LC50 (24 h) (I. scapularis nymphs; Ixodes scapularis nymphal ticks, alone, or 1:1 with carvacrol (in parenthesis), listed as compound 7): 0.0029 % (wt:vol)
X. cheopis adults (5 wk), number killed/number tested [3]: 5/5
A. aegypti LD50 (Aedes aegypti): <4.5 × 10^−3
Slope, residual activity (Ixodes scapularis nymphs; 1 week after treatment): 1.682
Slope, residual activity (Ixodes scapularis nymphs; 2 weeks after treatment): 1.586
Slope, residual activity (Ixodes scapularis nymphs; 4 weeks after treatment): 1.609
LC50, residual activity (Ixodes scapularis nymphs; [9]): 0.026 percent concentration, wt:vol
LC50 (1 h) [4]: 5.327 % (wt:vol)
LC50 (24 h) [4]: 1.605 % (wt:vol)
LC90 (1 hr) [4]: 14.045 % (wt:vol)
LC90 (24 h) [4]: 2.59 % (wt:vol)
LC90, residual activity (Aedes aegypti adults; 1 week after treatment): 0.054 percent concentration, wt:vol
Slope, residual activity (Aedes aegypti adults; 1 week after treatment): 3.043
Slope, residual activity (Aedes aegypti adults; 2 weeks after treatment): 3.342
LC90, residual activity (Aedes aegypti adults; 2 weeks after treatment, NE = not effective): 0.046 percent concentration, wt:vol
Slope, residual activity (Aedes aegypti adults; 4 weeks after treatment): 2.698
LC90, residual activity (Aedes aegypti adults; [9]): 0.038 percent concentration, wt:vol
mortality level [5]: < 100%
LC90 (X. cheopis adults; NE = not effective at concentrations tested): 0.019 percent concentration, wt:vol
Slope (X. cheopis adults; probit): 3.527
I. scapularis nymphs (72 h), number killed/number tested [6]: 5/5
residual activity [7]: considerable biological activity through the four week time period
